In brackets after ≈: the same amount, converted by molar mass.
Tested on: Pasteurella multocida
Experiment: minimum inhibitory concentration (MIC)
Experimental: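 Broth microdilution MIC (Sensititre BOPO7F bovine plate, CLSI methods) of 19 antimicrobials against field isolates of P. multocida, M. haemolytica, H. somni (deep nasopharyngeal swabs) and E. coli, Enterococcus spp. (rectal swabs) from weaned dairy heifers. Incubation 16-24 h at 35 C. MIC is the lowest concentration preventing visible growth. Values with <= or > lie at the tested range limits. Trimethoprim-sulfamethoxazole is given as the trimethoprim component of a 1:19 mixture.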

NC[C@@H]1O[C@H](O[C@H]2[C@@H](O)[C@H](O[C@@H]3[C@@H](O)[C@H](N)C[C@H](N)[C@H]3O[C@H]3O[C@H](CN)[C@@H](O)[C@H](O)[C@H]3N)O[C@@H]2CO)[C@H](N)[C@@H](O)[C@@H]1O [Neomycin]
Details | minimum inhibitory concentration [µg/mL]
isolate (source animal id): 10 | > 32
isolate (source animal id): 11 | > 32
isolate (source animal id): 12 | > 32
isolate (source animal id): 19 | > 32
isolate (source animal id): 23 | > 32
isolate (source animal id): 26 | > 32
isolate (source animal id): 98 | > 32
isolate (source animal id): 104 | > 32
isolate (source animal id): 115 | 32 (≈ 52.1 µM)
isolate (source animal id): 117 | > 32
isolate (source animal id): 118 | > 32
isolate (source animal id): 121 | > 32
isolate (source animal id): 124 | > 32
isolate (source animal id): 125 | > 32
isolate (source animal id): 128 | > 32
isolate (source animal id): 131 | > 32
isolate (source animal id): 135 | > 32
isolate (source animal id): 136 | > 32
isolate (source animal id): 140 | > 32
isolate (source animal id): 144 | > 32
isolate (source animal id): 146 | > 32
isolate (source animal id): 150 | > 32
isolate (source animal id): 151 | 32 (≈ 52.1 µM)
isolate (source animal id): 153 | > 32
isolate (source animal id): 155 | > 32
isolate (source animal id): 157 | > 32
isolate (source animal id): 160 | 32 (≈ 52.1 µM)
isolate (source animal id): 164 | 32 (≈ 52.1 µM)
isolate (source animal id): 165 | 32 (≈ 52.1 µM)
isolate (source animal id): 167 | > 32
isolate (source animal id): 168 | > 32
isolate (source animal id): 169 | > 32
isolate (source animal id): 170 | > 32
isolate (source animal id): 171 | > 32
isolate (source animal id): 172 | > 32
isolate (source animal id): 173 | > 32
isolate (source animal id): 174 | > 32
isolate (source animal id): 175 | > 32
isolate (source animal id): 176 | > 32
isolate (source animal id): 177 | 16 (≈ 26 µM)
isolate (source animal id): 178 | > 32
isolate (source animal id): 179 | > 32
isolate (source animal id): 182 | > 32
isolate (source animal id): 192 | > 32
isolate (source animal id): 193 | 16 (≈ 26 µM)
isolate (source animal id): 195 | 32 (≈ 52.1 µM)
isolate (source animal id): 196 | 8 (≈ 13 µM)
isolate (source animal id): 197 | > 32
isolate (source animal id): 198 | > 32
isolate (source animal id): 199 | > 32
isolate (source animal id): 200 | > 32
isolate (source animal id): 201 | > 32
isolate (source animal id): 203 | 32 (≈ 52.1 µM)
isolate (source animal id): 204 | > 32
isolate (source animal id): 205 | > 32
isolate (source animal id): 206 | > 32
isolate (source animal id): 207 | > 32
isolate (source animal id): 208 | > 32
isolate (source animal id): 209 | 32 (≈ 52.1 µM)
isolate (source animal id): 210 | > 32
isolate (source animal id): 213 | > 32
isolate (source animal id): 216 | > 32
isolate (source animal id): 223 | > 32
isolate (source animal id): 227 | > 32
isolate (source animal id): 229 | > 32
isolate (source animal id): 233 | > 32
isolate (source animal id): 234 | > 32
isolate (source animal id): 237 | > 32
isolate (source animal id): 241 | > 32
isolate (source animal id): 245 | > 32
isolate (source animal id): 247 | > 32
isolate (source animal id): 250 | > 32
isolate (source animal id): 254 | > 32
isolate (source animal id): 255 | > 32
isolate (source animal id): 258 | > 32
isolate (source animal id): 261 | > 32
isolate (source animal id): 262 | > 32
isolate (source animal id): 269 | > 32
isolate (source animal id): 270 | > 32
isolate (source animal id): 274 | > 32
isolate (source animal id): 275 | > 32
isolate (source animal id): 276 | > 32
isolate (source animal id): 277 | > 32
isolate (source animal id): 278 | > 32
isolate (source animal id): 279 | > 32
isolate (source animal id): 280 | > 32
isolate (source animal id): 284 | > 32
isolate (source animal id): 285 | > 32
isolate (source animal id): 287 | > 32
isolate (source animal id): 290 | > 32
isolate (source animal id): 294 | > 32
isolate (source animal id): 295 | > 32
isolate (source animal id): 296 | > 32
isolate (source animal id): 307 | > 32
isolate (source animal id): 310 | > 32
isolate (source animal id): 311 | > 32
isolate (source animal id): 312 | > 32
isolate (source animal id): 313 | > 32
isolate (source animal id): 315 | > 32
isolate (source animal id): 316 | > 32

From the supplement of paper PMC8612539
